Data reported in patent publication US10179128B2, “Regimens for treating and preventing lysosomal disorders and degenerative disorders of the central nervous system” (Amicus Therapeutics, Inc., priority 2015, dated 2019).
Where a chain is given by its changes, count along the chain named. Structures can show the parent of a compound that is named as a salt.

Assays:
[1] = Blood-brain barrier penetration in mice, oral 30 mg/kg FBE; format: in vivo; details: for Kp / Cmax: mouse, oral, 30 mg/kg; for Kp: brain and plasma, read-out: Barin/Plasma Cmax (%); for Cmax: plasma
Description: The ability of a drug to penetrate the blood-brain barrier can be an important function. Without the capability of penetrating into the brain, the drug will not likely have a therapeutic effect in tissues in the brain.

GCase = biological target: T1, GCase (Mus musculus, UniProt P17439); assay: ED50 in brain; format: in vivo
T1 construct: from tissue; host or cells: brain
T1 sequence (P17439 20-515): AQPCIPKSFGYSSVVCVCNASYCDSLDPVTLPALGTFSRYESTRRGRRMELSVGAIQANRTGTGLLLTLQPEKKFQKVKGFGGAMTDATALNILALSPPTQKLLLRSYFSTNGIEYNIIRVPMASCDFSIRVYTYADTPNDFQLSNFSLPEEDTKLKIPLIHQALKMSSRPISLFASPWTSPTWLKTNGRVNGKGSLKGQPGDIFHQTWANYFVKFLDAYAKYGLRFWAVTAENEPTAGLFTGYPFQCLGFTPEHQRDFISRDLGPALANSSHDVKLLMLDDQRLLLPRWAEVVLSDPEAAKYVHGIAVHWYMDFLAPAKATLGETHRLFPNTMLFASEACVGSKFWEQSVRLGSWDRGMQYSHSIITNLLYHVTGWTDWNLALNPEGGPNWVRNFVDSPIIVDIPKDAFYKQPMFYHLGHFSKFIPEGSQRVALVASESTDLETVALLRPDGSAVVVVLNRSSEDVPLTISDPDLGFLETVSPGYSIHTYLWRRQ

[2] = Brain tissue washout / efflux half-life; format: in vivo
Description: To evaluate the potential therapeutic effect of a chaperone, the washout period can be examined to determine the length of time required to washout the inhibitor. Otherwise, enzyme that is successfully trafficked to the lysosome may not have optimal functionality because the chaperone, which also functions as a competitive inhibitor, can continue to compete with the substrate for the enzyme active site.

pKa = format: physicochemical
[3] = Bioavailability (plasma as percent oral dose); format: in vivo
[4] = Blood-brain barrier penetration in rats, single 100 mg/kg FBE p.o.; format: in vivo; details: rat, brain and plasma, po, exposure in nM-hr, read-out: total brain exposure as % of plasma exposure
N370S mice = assay: Example 6: daily oral dosing of IFG tartrate in N370S mice; format: in vivo
Description: (§1) The purpose of this study was to first confirm that the GlcSph substrate was elevated in N370S and L444P mutant mouse models.
(§2) Both compounds were administered daily via an oral route.

L444P mice [5] = assay: Comparison of Examples 6-8 in L444P mice; format: in vivo
Description: Changes in brain, liver, and spleen GCase activity were compared across the studies of Examples 6-8. In FIGS. 20 and 21, C1 denotes the study from Example 6, C2 denotes the study from Example 7, and C3 denotes the study from Example 8.

L444P mice [6] = assay: Example 7: daily dosing of Compound 3 in L444P mice over four weeks, fixed and ascending doses in drinking water; format: in vivo
Description: Both fixed and ascending dosing schemes were used and were administered in drinking water. Four fixed dose groups, 0.01 mg/kg FBE, 0.1 mg/kg FBE, 1 mg/kg FBE, and 10 mg/kg FBE were used. A fifth group, which used an ascending dose, was also included, and it began at 0.01 mg/kg FBE and increased by 10-fold each week, with a dose during the final week of 10 mg/kg FBE.

L444P mice [7] = assay: Example 6: daily oral dosing of Compound 3 in L444P mice; format: in vivo
Description: as §1, §2

L444P mice [8] = assay: Example 8: additional dosing regimens of Compound 3 in L444P mice; format: in vivo
Description: The purpose of this study was to improve dosing choices based on data collected from Example 7. Specific tissues of L444P mice that were measured were the liver, brain, spleen, bone, marrow, and plasma. […] In Example 8, two dosing strategies were used, fixed dose and constant weekly dose. All doses were administered orally in drinking water. Fixed dose mice were given 1 mg/kg FBE either daily, two days a week, or three days a week. Constant weekly dose mice were given a total of 7 mg/kg FBE per week, either three days a week (Monday, Wednesday, Friday), two days a week (Monday, Thursday), or daily. For example, mice receiving 3 doses per week (Monday, Wednesday, Friday) would receive 2.33 mg/kg FBE in each dose, while mice receiving doses twice a week (Monday, Thursday) would receive 3.5 mg/kg FBE per dose.

GCase N370S = biological target: T2, GCase N370S (Homo sapiens, UniProt P04062, N409S); assay: cell-based
T2 sequence (P04062 40-536 N409S): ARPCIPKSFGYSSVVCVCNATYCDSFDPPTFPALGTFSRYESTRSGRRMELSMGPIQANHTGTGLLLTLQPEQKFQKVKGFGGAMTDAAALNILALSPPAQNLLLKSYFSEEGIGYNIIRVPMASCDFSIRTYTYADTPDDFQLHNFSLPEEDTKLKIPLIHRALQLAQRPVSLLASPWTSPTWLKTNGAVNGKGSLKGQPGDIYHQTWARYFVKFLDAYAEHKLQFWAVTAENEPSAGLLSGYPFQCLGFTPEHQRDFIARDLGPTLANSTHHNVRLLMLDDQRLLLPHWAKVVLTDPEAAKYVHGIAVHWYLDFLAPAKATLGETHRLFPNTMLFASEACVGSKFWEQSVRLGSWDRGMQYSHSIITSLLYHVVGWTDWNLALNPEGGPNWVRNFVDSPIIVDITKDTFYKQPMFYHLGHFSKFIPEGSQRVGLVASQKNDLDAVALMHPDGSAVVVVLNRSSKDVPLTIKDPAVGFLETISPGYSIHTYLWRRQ

rhGCase = biological target: T3, rhGCase (Homo sapiens, UniProt P04062); details: rats
T3 sequence (P04062 40-536): T2 sequence (P04062 40-536 N409S) with S370N

[9] = biological target: T4, recombinant human GCase (rhGCase) (Homo sapiens, UniProt P04062); assay: In vitro thermal stability assay of rhGCase (SYPRO Orange fluorescence); format: binding; details: 100 μM compound, neutral pH; enzyme alone approximately 53° C.
T4 sequence (P04062 40-536): T2 sequence (P04062 40-536 N409S) with S370N
Description: A dye (SYPRO® Orange) that fluoresces when it binds to hydrophobic regions of enzyme was used to assess stability, because unstable enzyme that loses its native conformation likely exposes internal hydrophobic amino acids, leading to an increase in fluorescence.

[10] = mice, oral 30 mg/kg FBE, brain tissue
[11] = all dose groups, Day 1 and Day 30 after 24-hour washout
[12] = ascending 0.01-10 mg/kg FBE dose

Question: Which “crossing of the blood-brain barrier” value ([1]; mice) does the source give for Cl.O[C@H]1[C@H](O)CNC[C@@H]1C(F)F [Compound 2] here?
Answer: capable of crossing the blood-brain barrier

Question: And the “Brain Cmax at 30 mg/kg” value [1, 10]?
Answer: 9.7 µM

Question: For OC[C@H]1CNC[C@@H](O)[C@@H]1O [Isofagomine, isofagomine, reference compound], which ED50 (GCase) is on record?
Answer: 56.4 mg/kg

Question: What about the “Brain tissue efflux (half-life)” value [2] of the same compound?
Answer: 2.9 h

Question: And the half-life [2]?
Answer: ~3 h

Question: What about the pKa (pKa) of the same compound?
Answer: 8.4

Question: And the “Brain Cmax at 30 mg/kg” value [1, 10]?
Answer: 0.3 µM

Question: And the Kp [1]?
Answer: 0.0165

Question: What about the Cmax [1] of the same compound?
Answer: 17.5 µM

Question: And the bioavailability [3]?
Answer: 53%

Question: Which results are given for OC[C@H]1CNC[C@@H](O)[C@@H]1O [IFG tartrate, isofagomine tartrate]?
Answer: crossing of the blood-brain barrier ([1]; mice): capable of crossing the blood-brain barrier; peak compound concentration in brain ([1]; mice, oral 30 mg/kg FBE, brain tissue, value in nM): 30 nM; Kp [4]: 0.29; GlcSph in liver versus control (N370S mice; 100 mg/kg FBE daily oral): reduction in GlcSph substrate; GlcSph in spleen versus control (N370S mice; 100 mg/kg FBE daily oral): significant reduction of GlcSph; reduction in bone GlcSph concentration (N370S mice; bone): 31%; reduction of GlcSph in marrow (N370S mice; marrow): 45%

Question: With O=C(O)/C=C/C(=O)O.O[C@H]1[C@H](O)CNC[C@@H]1C(F)F [Compound 3] as the compound, how does the “brain GCase activity” value (L444P mice [5]; 0-10 mg/kg FBE ascending dose, studies of Examples 6 and 7) read?
Answer: increased

Question: And the “brain GCase activity” value (L444P mice [5]; 1 mg/kg FBE dose, Example 7 and Example 8)?
Answer: increased

Question: And the “liver GCase activity” value (L444P mice [5]; 1 mg/kg FBE dosing regimens, Example 7 and Example 8)?
Answer: elevated

Question: What about the “brain GlcSph level versus vehicle” value (L444P mice [5]; 10 mg/kg FBE) of the same compound?
Answer: increased level of GlcSph over the vehicle

Question: And the “brain GlcSph level versus vehicle” value (L444P mice [5]; ascending dose (0-10 mg/kg FBE))?
Answer: increased level of GlcSph over the vehicle

Question: And the “GlcSph substrate level change in the spleen” value (L444P mice [5]; ascending dose (0-10 mg/kg FBE) and 1 mg/kg FBE dose, Examples 6-8)?
Answer: significant

Question: And the “liver GCase activity” value (L444P mice [5]; ascending dose, Example 6 and Example 7)?
Answer: higher GCase activity

Question: And the “GCase activity in brain, liver and spleen versus vehicle” value (L444P mice [6]; 0.01 mg/kg FBE and 0.1 mg/kg FBE)?
Answer: did not show significant differences

Question: And the “brain GlcSph versus vehicle” value (L444P mice [6]; 1 mg/kg FBE)?
Answer: increase in GlcSph

Question: What about the “liver GlcSph versus vehicle” value (L444P mice [6]; 1 mg/kg FBE) of the same compound?
Answer: decrease in GlcSph

Question: And the “spleen GlcSph versus vehicle” value (L444P mice [6]; 1 mg/kg FBE)?
Answer: decrease in GlcSph

Question: And the “increase in brain GCase activity versus vehicle” value (L444P mice [6]; 1 mg/kg FBE daily)?
Answer: almost a two-fold increase

Question: What about the “increase in liver GCase activity versus vehicle” value (L444P mice [6]; 1 mg/kg FBE daily) of the same compound?
Answer: 5 fold

Question: And the “increase in spleen GCase activity versus vehicle” value (L444P mice [6]; 1 mg/kg FBE daily)?
Answer: two-fold increase

Question: And the “brain GlcCer concentration versus vehicle” value (L444P mice [6]; 1 mg/kg FBE, after 30 days)?
Answer: No significant difference

Question: What about the “plasma GlcCer versus vehicle” value (L444P mice [6]; [11]) of the same compound?
Answer: no significant increases or decreases

Question: What about the “plasma GlcSph versus vehicle” value (L444P mice [6]; [11]) of the same compound?
Answer: no significant increases or decreases

Question: What about the “liver GlcCer concentration versus vehicle” value (L444P mice [6]; all dose groups, after 30 days) of the same compound?
Answer: No significant differences

Question: And the “brain GlcSph concentration versus vehicle” value (L444P mice [6]; [12])?
Answer: increase in substrate concentration

Question: What about the “increase in brain GCase activity versus vehicle” value (L444P mice [6]; [12]) of the same compound?
Answer: about three-fold

Question: What about the “increase in liver GCase activity versus vehicle” value (L444P mice [6]; [12]) of the same compound?
Answer: about 8 fold

Question: What about the “increase in spleen GCase activity versus vehicle” value (L444P mice [6]; [12]) of the same compound?
Answer: about 4 fold

Question: What about the “spleen GlcSph concentration versus vehicle” value (L444P mice [6]; [12]) of the same compound?
Answer: reduction in concentration

Question: What about the “brain GlcCer concentration versus vehicle” value (L444P mice [6]; ascending dose, after 30 days) of the same compound?
Answer: increased

Question: What about the “enhancement of GCase activity in liver” value (L444P mice [7]; 10 mg/kg FBE daily) of the same compound?
Answer: 7.6 fold

Question: What about the “GlcSph in spleen versus control” value (L444P mice [7]; 10 mg/kg FBE daily oral) of the same compound?
Answer: significant reduction of GlcSph

Question: And the “enhancement of GCase activity in brain” value (L444P mice [7]; 10 mg/kg FBE daily, almost equivalent to wild-type activity)?
Answer: 2.8 fold

Question: What about the “brain GCase activity versus vehicle” value (L444P mice [8]; 1 mg/kg FBE daily dose) of the same compound?
Answer: increased and was significant

Question: What about the “liver GlcSph concentration versus vehicle” value (L444P mice [8]; 1 mg/kg FBE daily dose) of the same compound?
Answer: significant reduction

Question: What about the “spleen GlcSph concentration versus vehicle” value (L444P mice [8]; 1 mg/kg FBE daily dose) of the same compound?
Answer: significant reduction

Question: And the “plasma concentration of GlcCer” value (L444P mice [8]; across all doses)?
Answer: no significant differences

Question: What about the Kp [4] of the same compound?
Answer: 0.85

Question: For O[C@H]1[C@H](O)CNC[C@@H]1C(F)F [Compound 1], which Emax (GCase N370S) is on record?
Answer: 106%

Question: And the ED50 (GCase)?
Answer: 5.2 mg/kg

Question: And the “normalized GCase activity in plasma versus rhGCase alone” value (rhGCase; 3 mg/kg oral gavage 30 minutes before IV rhGCase)?
Answer: sustained a higher normalized GCase activity in plasma longer

Question: What about the “rhGCase western blot band versus no chaperone” value (rhGCase; 3 mg/kg, 5 minute and 10 minute intervals) of the same compound?
Answer: a more intense protein band

Question: What about the half-life [2] of the same compound?
Answer: ~1.4 h

Question: And the pKa (pKa)?
Answer: 7.1

Question: And the “Brain Cmax at 30 mg/kg” value [1, 10]?
Answer: 9.7 µM

Question: And the Kp [1]?
Answer: 0.115

Question: And the Cmax [1]?
Answer: 84.5 µM

Question: And the bioavailability [3]?
Answer: 106%

Question: What about the “temperature of peak fluorescence (unfolding)” value [9] of the same compound?
Answer: 65 °C
